Laboratory results as given in patent US20260151413A1, “ANTICANCER DRUG CONJUGATES” (Ariel Scientific Innovations Ltd., priority 2022, published 2026).
“Also recorded” adds a separate entry of the source.

Legend:
MHH-CALL4 = experiment: WST-1 proliferation assay, MHH-CALL4; assay type: cell-based, human; settings: Homo sapiens, MHHCALL4; WST-1, 48 hours of treatment
Method: (§1) Albert Pinhasov (Ariel University, Ariel, Israel). […] Granta cells were kindly provided by Prof.
(§2) Table 3 [resents the calculated IC50 values (μM) for each chimera in different hematological malignancies cell-lines. The proliferation rate was measured by WST-1 assay after 48 hours of treatment. The result shown for each concentration point represents the […]

GRANTA = experiment: WST-1 proliferation assay, GRANTA; assay type: cell-based; settings: WST-1, 48 hours of treatment
Method: as §1, §2

BV-173 cells = experiment: DNA damage by dual staining of pH2A.X and pATM; assay type: cell-based; settings: 50 nM, 3 hours, compared to the parental drug
Method: BV-173 cells (2×10^5 cells/well) were treated with DMSO, Doxorubicin or Doxorubizen. After incubation for 3 hours, phosphorylation level of ATM and H2AX was measured by Muse cell analyzer using Muse Multi-Color DNA Damage Kit (Luminex Corporation, Part number: MCH200107) according to manufacturer's instructions. Phosphorylation levels were determined using Guava software (Luminex/Millipore, USA, version 3.3).
BV-173 cells were exposed to 50 nM chimera 9 or the non-conjugated drug Doxorubicin, and DNA damage was analyzed after 3 hours by using dual staining of phospho-Histone H2A.X (Ser139) and phospho-ATM (Ser1981) antibodies.

HEL = experiment: WST-1 proliferation assay, HEL; assay type: cell-based, human; settings: Homo sapiens, HEL; WST-1, 48 hours of treatment
Method: as §1, §2

[1] = test system: Human primary anaplastic thyroid cancer (ATC) cells; experiment: Vitality/proliferation of primary anaplastic thyroid cancer cells; assay type: cell-based; settings: 100 nM, 250 nM, 500 nM; 3, 5 and 7 days
Method: Human primary anaplastic thyroid cancer (ATC) cells were treated with chimera 9 (100 nM, 250 nM, and 500 nM), or Doxorubicin (100 nM, 250 nM, and 500 nM), or with vehicle, for 3, 5, and 7 days.

MINO = experiment: WST-1 proliferation assay, MINO; assay type: cell-based, human; settings: Homo sapiens, MINO; WST-1, 48 hours of treatment
Method: as §1, §2

## COC(=O)N(C)/N=N/c1ccc(CNC2CC(OC3CC(O)(C(=O)CO)Cc4c(O)c5c(c(O)c43)C(=O)c3c(OC)cccc3C5=O)OC(C)C2O)cc1 (stereo not drawn) [Chimera 9, (E)-methyl-3-(4-(((3-hydroxy-2-methyl-6-((3,5,12-trihydroxy-3-(2-hydroxyacetyl)-10-methoxy-6,11-dioxo-1,2,3,4,6,11-hexahydrotetracen-1-yl)oxy)tetrahydro-2H-pyran-4-yl)amino)methyl)phenyl)-1-methyltriaz-2-ene-1-carboxylate]
MHH-CALL4
  IC50: 1.14 µM
GRANTA
  IC50: 2.59 µM
BV-173 cells
  DNA damage: co-activation of pH2A.X and pATM: significant co-activation of pH2A.X and pATM
HEL
  IC50: 0.97 µM
[1]
  vitality/proliferation of primary human ATC cells: reduced the vitality/proliferation of primary human ATC cells significantly; also recorded: higher effect
MINO
  IC50: 0.48 µM
